According to ChEMBL document CHEMBL1132548, “Exploring the structure-activity relationships of [1-(4-tert-butyl-3'-hydroxy)benzhydryl-4-benzylpiperazine] (SL-3111), a high-affinity and selective delta-opioid receptor nonpeptide agonist ligand” (J Med Chem, 1999):
Blank lines part the entries; values can stand above or below the compound they belong to.

What was measured:
[1] = target: Mu-type opioid receptor (Homo sapiens) (UniProt P35372); experiment: Agonist activity using strips of guinea pig ileum longitudinal muscle myenteric plexus at 30 uM; assay type: functional, tissue-based
Sequence of Mu-type opioid receptor (Homo sapiens) (P35372 whole entry): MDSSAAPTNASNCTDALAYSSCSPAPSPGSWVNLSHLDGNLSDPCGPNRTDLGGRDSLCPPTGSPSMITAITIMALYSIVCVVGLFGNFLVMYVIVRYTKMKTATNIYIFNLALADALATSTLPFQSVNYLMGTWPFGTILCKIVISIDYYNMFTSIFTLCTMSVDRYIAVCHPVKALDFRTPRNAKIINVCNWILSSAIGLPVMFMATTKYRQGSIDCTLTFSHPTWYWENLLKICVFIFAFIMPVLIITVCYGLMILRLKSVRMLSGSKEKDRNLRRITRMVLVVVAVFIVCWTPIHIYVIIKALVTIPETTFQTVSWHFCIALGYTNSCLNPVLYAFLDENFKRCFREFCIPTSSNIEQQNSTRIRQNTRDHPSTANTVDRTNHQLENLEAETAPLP

Mu-type opioid receptor [2] = target: Mu-type opioid receptor (Rattus norvegicus, UniProt P33535); experiment: In vitro inhibition of [3H]DAMGO (Tyr-D-Ala-Gly-(Me)-Phe-Gly-ol) binding to Opioid receptor mu 1 using rat brain membranes; assay type: cell membranes, Membrane
Sequence of Mu-type opioid receptor (Rattus norvegicus, UniProt P33535) (P33535 whole entry): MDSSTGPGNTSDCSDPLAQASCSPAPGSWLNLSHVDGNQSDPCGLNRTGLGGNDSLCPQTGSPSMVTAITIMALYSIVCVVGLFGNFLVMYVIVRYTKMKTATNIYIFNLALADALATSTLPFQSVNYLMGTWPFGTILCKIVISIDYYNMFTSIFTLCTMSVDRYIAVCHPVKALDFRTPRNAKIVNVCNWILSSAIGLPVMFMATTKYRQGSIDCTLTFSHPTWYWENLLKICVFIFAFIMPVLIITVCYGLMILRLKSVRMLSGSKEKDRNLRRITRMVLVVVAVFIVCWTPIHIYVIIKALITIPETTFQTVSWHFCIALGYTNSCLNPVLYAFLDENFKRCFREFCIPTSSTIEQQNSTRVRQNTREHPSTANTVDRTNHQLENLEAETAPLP

Mu-type opioid receptor [3] = target: Mu-type opioid receptor (Mus musculus, UniProt P42866); experiment: Agonist activity using electrically induced smooth muscle contraction of mouse vas deferens.; assay type: functional
Sequence of Mu-type opioid receptor (Mus musculus, UniProt P42866) (P42866 whole entry): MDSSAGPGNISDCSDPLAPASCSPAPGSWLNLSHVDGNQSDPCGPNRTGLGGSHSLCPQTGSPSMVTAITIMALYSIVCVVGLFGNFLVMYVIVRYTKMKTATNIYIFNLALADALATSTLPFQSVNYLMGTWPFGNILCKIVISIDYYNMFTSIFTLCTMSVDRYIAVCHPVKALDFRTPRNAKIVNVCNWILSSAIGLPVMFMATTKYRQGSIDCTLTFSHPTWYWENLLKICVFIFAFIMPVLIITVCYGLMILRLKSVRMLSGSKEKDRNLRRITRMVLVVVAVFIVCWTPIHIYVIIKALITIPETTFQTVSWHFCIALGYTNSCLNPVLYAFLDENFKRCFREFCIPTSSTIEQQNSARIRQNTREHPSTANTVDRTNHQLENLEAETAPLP

[4] = target: T1, Delta-type opioid receptor (Rattus norvegicus, UniProt P33533); experiment: In vitro inhibition of [3H]deltorphin binding to Opioid receptor delta 1 using rat brain membranes.; assay type: cell membranes, Membrane
T1 sequence (P33533 whole entry): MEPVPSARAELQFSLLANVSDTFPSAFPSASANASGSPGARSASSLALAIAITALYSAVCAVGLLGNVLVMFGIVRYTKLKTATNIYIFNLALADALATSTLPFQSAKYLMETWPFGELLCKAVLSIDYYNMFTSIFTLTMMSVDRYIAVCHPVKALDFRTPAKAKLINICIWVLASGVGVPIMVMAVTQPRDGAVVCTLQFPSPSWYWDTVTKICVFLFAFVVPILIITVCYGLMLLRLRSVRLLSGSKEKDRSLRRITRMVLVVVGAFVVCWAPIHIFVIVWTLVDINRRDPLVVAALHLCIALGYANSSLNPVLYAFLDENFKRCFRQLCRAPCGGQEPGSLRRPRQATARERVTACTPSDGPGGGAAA

[5] = target: T1, Delta-type opioid receptor; experiment: In vitro inhibition of [3H]- [p-Cl-Phe4]DPDPE binding to Opioid receptor delta 1 using rat brain membranes.; assay type: cell membranes, Membrane
[6] = target: Mu-type opioid receptor (Mus musculus) (UniProt P42866); experiment: Agonist activity using electrically induced smooth muscle contraction of mouse vas deferens at 30 uM; assay type: functional, tissue-based
Sequence of Mu-type opioid receptor (Mus musculus) (P42866 whole entry): as the sequence (P42866 whole entry) above

[7] = target: Mu-type opioid receptor (Cavia porcellus) (UniProt P97266); experiment: Agonist activity using strips of guinea pig ileum longitudinal muscle myenteric plexus at 10 uM; assay type: functional, tissue-based
Sequence of Mu-type opioid receptor (Cavia porcellus) (P97266 whole entry): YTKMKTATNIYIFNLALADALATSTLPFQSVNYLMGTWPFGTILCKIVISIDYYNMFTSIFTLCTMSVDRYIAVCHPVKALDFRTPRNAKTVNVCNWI

Mu-type opioid receptor [8] = target: Mu-type opioid receptor (Cavia porcellus, UniProt P97266); experiment: Agonist activity using strips of guinea pig ileum longitudinal muscle myenteric plexus.; assay type: functional, tissue-based
Sequence of Mu-type opioid receptor (Cavia porcellus, UniProt P97266) (P97266 whole entry): as above

[9] = target: Mu-type opioid receptor (Homo sapiens) (UniProt P35372); settings: guinea pig; Ileum; at 10 µM
[10] = target: Mu-type opioid receptor (Mus musculus) (UniProt P42866); settings: Vas deferens; 1 uM

Structure (SMILES): C[C@H]1CN(Cc2ccccc2)CCN1C(c1ccc(C(C)(C)C)cc1)c1cccc(O)c1 (stereo partly drawn)
inhibition [1]: 0%
IC50 (Mu-type opioid receptor [2]): 3.3 µM
IC50 (Mu-type opioid receptor [3]): 0.29 µM
IC50 [4]: 0.011 µM

IC50 (Mu-type opioid receptor [2]): 38.3 µM
IC50 [5]: 44.7 µM
Structure (SMILES): O=C(OCc1ccc(O)cc1)N1CSC(=S)N(Cc2ccccc2)C1

Structure (SMILES): CC(C)(C)c1ccc(C(c2cccc(O)c2)N2CCN(Cc3ccccc3)C[C@@H]2COCc2ccccc2)cc1 (stereo partly drawn)
inhibition [6]: 44%
IC50 (Mu-type opioid receptor [2]): 26 µM
inhibition [7]: 0%
IC50 [4]: 0.038 µM

Structure (SMILES): CC(C)(C)c1ccc(C(c2cccc(O)c2)N2CCN(Cc3ccccc3)C[C@@H]2Cc2ccccc2)cc1 (stereo in doubt; 15c1) [listing 1 of 2 here]
IC50 (Mu-type opioid receptor [2]): > 80 µM
IC50 [4]: > 10 µM

Structure (SMILES): CC(C)(C)c1ccc(C(c2cccc(O)c2)C2CCN(Cc3ccccc3)CC2)cc1 (stereo not drawn)
IC50 (Mu-type opioid receptor [2]): 4.3 µM
IC50 (Mu-type opioid receptor [3]): 0.39 µM
IC50 (Mu-type opioid receptor [8]): 15.6 µM
IC50 [4]: 0.033 µM

Structure (SMILES): CC(C)(C)c1ccc(C(c2cccc(O)c2)N2CCC(Cc3ccccc3)CC2)cc1 (stereo not drawn)
IC50 (Mu-type opioid receptor [2]): 22.9 µM
IC50 [4]: 12.6 µM

Structure (SMILES): CC(C)(C)c1ccc(C(c2cccc(O)c2)N2CCN(Cc3ccccc3)C[C@@H]2CO)cc1 (stereo partly drawn)
IC50 (Mu-type opioid receptor [2]): 7.98 µM
IC50 (Mu-type opioid receptor [3]): 2.26 µM
inhibition [9]: 36%
IC50 [4]: 0.038 µM

Structure (SMILES): S=C1SCN(Cc2ccccc2)CN1Cc1ccccc1 [SULBENTINE]
IC50 (Mu-type opioid receptor [2]): 27.9 µM
IC50 [5]: 28.6 µM

Structure (SMILES): CC(C)(C)c1ccc(C(c2cccc(O)c2)N2CCN(Cc3ccccc3)C[C@@H]2Cc2ccccc2)cc1 (stereo in doubt; 15c1) [listing 2 of 2 here]
inhibition [1]: 0%
inhibition [10]: 10%

Structure (SMILES): CC(C)(C)c1ccc(C(c2cccc(O)c2)N2CCN(Cc3ccccc3)C[C@@H]2Cc2ccccc2)cc1 (stereo in doubt; 15c2)
IC50 (Mu-type opioid receptor [2]): 46.3 µM
IC50 [4]: 21.3 µM
